From publication PMC8518391, “Synthesis and Biological Evaluation of Dantrolene‐Like Hydrazide and Hydrazone Analogues as Multitarget Agents for Neurodegenerative Diseases” (Chemmedchem, 2021)

Legend:
hAChE = molecular target: T1, hAChE (Homo sapiens, UniProt P22303); experiment: biochemical; conditions: for inhibition at 10 µM: read-out: % inhibition at 10 μM hAChE
T1 construct: purchased Sigma Aldrich
Excerpt: (§1) Readings were made with Infinite M1000 Pro plate reader (Tecan, Cernusco s.N., Italy) and statistical regressions with Prism software (GraphPad Prism version 5.00 for Windows, GraphPad Software, San Diego, CA, USA).

hMAO A = molecular target: T2, hMAO A (Homo sapiens, UniProt P21397); experiment: biochemical; conditions: for inhibition at 10 µM: read-out: % inhibition at 10 μM hMAO A
T2 construct: purchased Sigma Aldrich
T2 sequence (P21397 1-527): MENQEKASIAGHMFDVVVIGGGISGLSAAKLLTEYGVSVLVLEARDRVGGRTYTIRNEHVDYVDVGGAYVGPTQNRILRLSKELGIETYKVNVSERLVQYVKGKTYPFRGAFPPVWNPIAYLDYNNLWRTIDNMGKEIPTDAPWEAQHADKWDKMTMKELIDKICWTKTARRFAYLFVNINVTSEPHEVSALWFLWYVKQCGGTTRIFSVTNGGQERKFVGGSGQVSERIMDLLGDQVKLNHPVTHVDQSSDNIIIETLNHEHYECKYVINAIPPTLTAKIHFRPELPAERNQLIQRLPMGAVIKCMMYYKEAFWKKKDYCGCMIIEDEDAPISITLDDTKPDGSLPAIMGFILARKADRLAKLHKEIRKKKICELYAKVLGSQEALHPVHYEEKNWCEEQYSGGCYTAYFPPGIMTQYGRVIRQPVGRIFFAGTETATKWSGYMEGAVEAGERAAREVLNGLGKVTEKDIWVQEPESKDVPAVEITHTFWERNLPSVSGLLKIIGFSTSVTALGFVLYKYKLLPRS
Excerpt: as §1

hMAO B = molecular target: T3, hMAO B (Homo sapiens, UniProt P27338); experiment: biochemical; format: biochemical; conditions: for inhibition at 10 µM: read-out: % inhibition at 10 μM hMAO B
T3 construct: purchased Sigma Aldrich
T3 sequence (P27338 1-520): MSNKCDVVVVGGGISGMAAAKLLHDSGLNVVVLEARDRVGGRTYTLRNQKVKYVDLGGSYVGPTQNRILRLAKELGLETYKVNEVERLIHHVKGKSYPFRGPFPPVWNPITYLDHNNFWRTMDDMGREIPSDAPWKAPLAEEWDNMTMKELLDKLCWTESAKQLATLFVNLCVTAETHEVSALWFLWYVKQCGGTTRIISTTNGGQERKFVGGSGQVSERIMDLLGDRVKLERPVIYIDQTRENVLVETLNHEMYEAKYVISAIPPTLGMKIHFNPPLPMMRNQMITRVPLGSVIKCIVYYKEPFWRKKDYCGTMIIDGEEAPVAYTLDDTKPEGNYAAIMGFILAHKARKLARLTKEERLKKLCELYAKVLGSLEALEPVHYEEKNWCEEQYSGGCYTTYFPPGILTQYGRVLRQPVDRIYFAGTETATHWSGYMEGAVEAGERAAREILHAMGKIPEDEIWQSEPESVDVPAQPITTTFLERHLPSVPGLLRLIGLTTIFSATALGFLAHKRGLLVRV

[1] = RP-HPLC lipophilicity index log k’; format: physicochemical; conditions: MeOH/phosphate buffer pH 7.4; methanol/PBS 60:40 v/v
Excerpt: To investigate a possible correlation between MAO inhibitory potency and lipophilicity,[7] we calculated log P with three different programs (ChemDraw 15.0; ALOG PS 2.1; ChemSketch 2017, see Table S1 in Supporting Information) and compared the calculated values with experimental lipophilicity indexes as assessed by reversed‐phase (RP) HPLC in isocratic conditions for the majority of compounds. The log of capacity factors (log k’) measured by RP‐HPLC using a mixture of methanol/PBS (60 : 40, v/v) as the mobile phase are reported in Tables 1 and 2, along with Clog P values calculated with ChemDraw. These calculated lipophilicity descriptors correlated with the experimental log k’ values (n=13, r ^2=0.901) better than the other log Ps calculated by ALOG PS and ChemSketch computational tools (r ^2 equal 0.705 and 0.568, respectively). As shown by the scatter plots in Figure 4 and Figure S1 in Supporting Information, there is no evident correlation trend between MAO A/B inhibition data and lipophilicity calculated by the expert system implemented in ChemDraw for compounds achieving finite IC50 values.
Log k’ values (k’=(tr‐t0)/t0) and purity determinations were carried out using a Phenomenex Gemini C18 4.6×150 mm, with 3 μm size particles, built on a Waters double pump HPLC system in isocratic conditions. Injection volumes were 10 μL, flow rate was 0.5 mL/min, and detection was performed with UV (λ=254 and 370 nm). Samples were prepared by dissolving 0.1 mg/mL of the solute in 10 % v/v DMSO and 90 % v/v methanol. Retention times (tr) were measured at least from three separate injections, and dead time (t0) was the retention time of deuterated methanol. The mobile phase was filtered through a Supelco Nylon‐66 membrane 0.45 μm (Merck Life Science Srl, Milan, Italy) before use. For each reference compound, the average tr of three consecutive injections of 10 μL of sample was used to calculate the log k’ values. The eluent consisted of five different mixtures of methanol and PBS buffer 10 mM at pH 7.4, with methanol/buffer ratios ranging from 80 : 20 to 60 : 40 v/v.

[2] = Hydrolytic stability in buffered solution (PBS pH 7.4, 37 °C); format: physicochemical; conditions: 20 μM in 10 mM PBS pH 7.4, 37 °C, 6 h incubation
Experimental: The hydrolytic stability of some representative imino/hydrazone/hydrazide derivatives was determined in buffered aqueous media. […]. […]. The hydrolytic degradation of 9 in its starting reagents was confirmed by the comparison of the chromatograms of 9 and 2‐chloro‐4‐hydroxyaniline, obtained in the same chromatographic conditions (Figure 6B).
Stability studies in buffered solution were performed following an already described procedure,[23] on a Phenomenex C18 column (150×4.6 mm i.d., 3 μm particle size; Phenomenex, Castel Maggiore, Italy) using a mobile phase consisting of a mixture of methanol‐water (75 : 25 v/v, with aqueous formic acid 0.1 %). The used flow rate was 0.500 mL/min while the injection volume was 20 μL. Wavelength of UV‐Vis detector was adjusted at 254 nm. The chemical stability was evaluated in a phosphate buffer solution pH 7.4 (10 mM HPO4 ^2−/H2PO4 ^−; 100 mM NaCl) at 37 °C. Five different concentrations from 0.5 μM to 20 μM were studied in a 2 h time range (data not shown). Each concentration (0.5, 1, 5, 10 and 20 μM) was tested in triplicate starting from 3 different stocks solution (1 mM) prepared separately. The time range was extended to 6 h only for the samples at 20 μM concentration (Figure 6a).

T1 sequence (P22303 32-614): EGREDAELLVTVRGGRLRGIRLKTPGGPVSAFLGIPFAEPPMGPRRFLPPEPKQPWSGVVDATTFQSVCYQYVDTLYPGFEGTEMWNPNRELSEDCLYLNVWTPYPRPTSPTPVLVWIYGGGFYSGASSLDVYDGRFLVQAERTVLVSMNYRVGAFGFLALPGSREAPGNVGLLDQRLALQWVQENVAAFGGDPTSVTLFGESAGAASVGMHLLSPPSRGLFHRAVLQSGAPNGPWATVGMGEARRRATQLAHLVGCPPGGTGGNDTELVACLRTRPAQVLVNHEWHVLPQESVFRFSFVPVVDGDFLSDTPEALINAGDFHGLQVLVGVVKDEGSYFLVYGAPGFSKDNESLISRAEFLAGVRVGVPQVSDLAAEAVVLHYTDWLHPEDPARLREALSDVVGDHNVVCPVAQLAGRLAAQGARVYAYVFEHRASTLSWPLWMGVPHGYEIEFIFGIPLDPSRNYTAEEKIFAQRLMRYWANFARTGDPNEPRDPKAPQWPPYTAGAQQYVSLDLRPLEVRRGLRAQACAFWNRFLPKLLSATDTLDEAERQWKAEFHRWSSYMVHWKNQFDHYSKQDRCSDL

Structure (SMILES)	inhibition at 10 µM (hAChE) [%]	inhibition at 10 µM (hMAO A) [%]	inhibition at 10 µM (hMAO B) [%]	log k’ (logarithm of capacity factor, RP-HPLC) [1]	IC50 (hAChE) [µM]	IC50 (hMAO B) [µM]	IC50 (hMAO A) [µM]	% inhibition at 10 μM hMAO B (hMAO B; 10 μM)	hydrolytic stability [2]
COc1cc(C=NN2CC(=O)NC2=O)cc(OC)c1OC [Compound 21, 1‐(((3,4,5‐trimethoxyphenyl)methylidene)amino)imidazolidine‐2,4‐dione]	28	8	18						
O=C(Cc1ccccc1)NN=Cc1ccco1 [Compound 17, N ′‐((furan‐2‐yl)methylidene)‐2‐phenylacetohydrazide]	52	22	22						
COc1ccc(N/N=C/c2ccc(-c3ccc(C#N)cc3)o2)cc1 [Compound 10]		47	29						
COc1cccc(C=NNc2ccc(S(N)(=O)=O)cc2)c1 [Compound 20, 4‐(2‐((3‐methoxyphenyl)methylidene)hydrazinyl)benzene‐1‐sulfonamide]		42		0.307	10.2 ± 1.6	0.81 ± 0.04			
CC(=O)NN=Cc1ccc(-c2ccc(C#N)cc2)o1 [Compound 6, N ′‐((5‐(4‐cyanophenyl)furan‐2‐yl)methylene)acetohydrazide]	38			0.236		2.65 ± 0.11	4.25 ± 0.45		
O=C(N/N=C/c1ccc(-c2ccc([N+](=O)[O-])cc2)o1)c1ccncc1 [Compound 2]	30			0.522		3.56 ± 0.36	7.89 ± 1.1		
CS(=O)(=O)c1ccc(NN=Cc2ccc(-c3ccc(C#N)cc3)o2)cc1 [Compound 11, 4‐(5‐((2‐(4‐(methylsulfonyl)phenyl)hydrazono)methyl)furan‐2‐yl)benzonitrile]	39	11	28						
CN1CCN(N=Cc2ccco2)CC1 [Compound 16, 1‐(Furan‐2‐yl)‐N‐(4‐methylpiperazin‐1‐yl)methanimine]	21	18	13						
O=C1CN(/N=C/c2ccco2)C(=O)N1 [Compound 14]		11		−1.018	9.06 ± 0.45			no inhibition	
O=C(N/N=C/c1ccco1)c1cccs1 [Compound 15]		16	13	−0.010	7.18 ± 0.07				
COc1cccc(/C=N/NC(=O)c2ccncc2)c1 [Compound 19]		19		0.129	11.2 ± 1.6	12.2 ± 1.5			
N#Cc1ccc(-c2ccc(C=NNC(=O)Cc3ccccc3)o2)cc1 [Compound 8, N ′‐((5‐(4‐cyanophenyl)furan‐2‐yl)methylene)‐2‐phenyl‐acetohydrazide]	16			0.803		3.61 ± 0.04	5.51 ± 0.54		
N#Cc1ccc(-c2ccc(/C=N/N3CC(=O)NC3=O)o2)cc1 [Compound 7]	28	40	50						
N#Cc1ccc(-c2ccc(C=NNC(=O)c3cccs3)o2)cc1 [Compound 4, N ′‐((5‐(4‐cyanophenyl)furan‐2‐yl)methylene)thiophene‐2‐carbohydrazide]	51					2.63 ± 0.42	1.46 ± 0.21		substantial stability
NS(=O)(=O)c1ccc(NN=Cc2ccco2)cc1 [Compound 18, 4‐(‐2‐((furan‐2‐yl)methylidene)hydrazinyl)benzene‐1‐sulfonamide]	27	25	21						
CN1CCN(N=Cc2ccc(-c3ccc([N+](=O)[O-])cc3)o2)CC1 [Compound 3, N ‐(4‐methylpiperazin‐1‐yl)‐1‐(5‐(4‐nitrophenyl)furan‐2‐yl)methanimine]	44			0.752		3.15 ± 0.03	5.61 ± 1.11		substantial stability
N#Cc1ccc(-c2ccc(/C=N/Nc3ccc(S(N)(=O)=O)cc3)o2)cc1 [Compound 12]			28	0.466	1.67 ± 0.19		10 ± 1.9		
COc1cc(C=NNC(=O)c2cccs2)ccc1-c1ccc(C#N)cc1 [Compound 13, N ′‐[(4′‐cyano‐2‐methoxy[1,1′‐biphenyl]‐4‐yl)methylidene]thiophene‐2‐carbohydrazide]	35	29		0.549		2.32 ± 0.43			
O=C(NN=Cc1ccc(-c2ccc([N+](=O)[O-])cc2)o1)c1cccs1 [Compound 1, N ′‐((5‐(4‐nitrophenyl)furan‐2‐yl)methylene)thiophene‐2‐carbohydrazide]	40	33		0.947		3.67 ± 0.92			
N#Cc1ccc(-c2ccc(/C=N/NC(=O)c3ccncc3)o2)cc1 [Compound 5, N ′‐((5‐(4‐cyanophenyl)furan‐yl)methylene)isonicotinohydrazide]	27			0.312		12.6 ± 0.9	6.62 ± 0.71		
